biological target: unphosphorylated-BTK kinase domain (UP-BTK), GST-tagged human BTK (389-659aa) (Homo sapiens (Human), UniProt Q06187); test: BTK kinase Lanthascreen binding assay; settings: Lanthascreen tracer competition, 60 minutes incubation; pIC50 = negative log of the IC50 in molar
How it was run: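 Lanthascreen competition binding; test compound vs fluorescent tracer on unphosphorylated BTK. Output: pIC50 (−log IC50, M).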

unphosphorylated-BTK kinase domain (UP-BTK), GST-tagged human BTK (389-659aa), sequence (Q06187 389-659): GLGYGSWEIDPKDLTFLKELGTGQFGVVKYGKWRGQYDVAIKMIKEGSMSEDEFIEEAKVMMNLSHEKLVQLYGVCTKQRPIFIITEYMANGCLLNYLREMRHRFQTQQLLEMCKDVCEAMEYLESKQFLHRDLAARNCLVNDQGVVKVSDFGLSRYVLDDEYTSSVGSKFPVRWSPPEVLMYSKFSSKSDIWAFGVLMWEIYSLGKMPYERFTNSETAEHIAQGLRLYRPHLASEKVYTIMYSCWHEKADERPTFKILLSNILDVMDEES

Compared with `Cc1cc(Oc2ccccc2)ccc1N1C(=O)Nc2c(C(=O)N[C@@H]3CCCN(C(=O)/C(C#N)=C/C(C)(C)C)C3)sc3nccc1c23` [Example 880, (R,E)-N-(1-(2-Cyano-4,4-dimethylpent-2-enoyl)piperidin-3-yl)-5-(2-methyl-4-phenoxyphenyl)-4-oxo-4,5-dihydro-3H-1-thia-3,5,8-triazaacenaphthylene-2-carboxamide], `C=CC(=O)N1CCC[C@@H](NC(=O)c2sc3nccc4c3c2NC(=O)N4c2ccc(Oc3ccccc3F)cn2)C1` [Example 777, (R)—N-(1-Acryloylpiperidin-3-yl)-5-(5-(2-fluorophenoxy)pyridin-2-yl)-4-oxo-4,5-dihydro-3H-1-thia-3,5,8-triazaacenaphthylene-2-carboxamide] is higher in “BTK_I_binding pIC50” value: 7.1 for the first, 8.3 for the second.

Compared with `C=CC(=O)N1CC[C@@H](NC(=O)c2sc3nccc4c3c2NC(=O)N4c2cnc(Oc3ccccc3)nc2)C1` [Example 748, (R)—N-(1-Acryloylpyrrolidin-3-yl)-4-oxo-5-(2-phenoxypyrimidin-5-yl)-4,5-dihydro-3H-1-thia-3,5,8-triazaacenaphthylene-2-carboxamide], `C=CC(=O)N1CC[C@@H](NC(=O)c2sc3nccc4c3c2NC(=O)N4c2ccc(Oc3ccccn3)cc2)C1` [Example 881, (R)—N-(1-Acryloylpyrrolidin-3-yl)-4-oxo-5-(4-(pyridin-2-yloxy)phenyl)-4,5-dihydro-3H-1-thia-3,5,8-triazaacenaphthylene-2-carboxamide] is higher in “BTK_I_binding pIC50” value: 6.8 for the first, 7.1 for the second.

For `CC(C)(C)S(=O)(=O)c1ccc(N2C(=O)Nc3c(C(=O)N[C@@H]4CCCNC4)sc4nccc2c34)cc1` [Example 650, (R)-5-(4-(tert-Butylsulfonyl)phenyl)-4-oxo-N-(piperidin-3-yl)-4,5-dihydro-3H-1-thia-3,5,8-triazaacenaphthylene-2-carboxamide], the “BTK_I_binding pIC50” value was less than 5.
`O=C(N[C@@H]1CCCNC1)c1sc2nccc3c2c1NC(=O)N3c1cccc(-c2ccccc2)n1` [Example 623, (R)-4-Oxo-5-(6-phenylpyridin-2-yl)-N-(piperidin-3-yl)-4,5-dihydro-3H-1-thia-3,5,8-triazaacenaphthylene-2-carboxamide] was tested, and the “BTK_I_binding pIC50” value was less than 6.

same assay, conditions: Lanthascreen tracer competition, 60 minutes incubation; pIC50 = negative log of the IC50 in molar; read-out: BTK_I_binding pIC50 (converted)

Work on `CC(C)(C)OC(=O)N1C[C@H](O)C[C@@H](NC(=O)c2sc3nccc4c3c2NC(=O)N4c2ccc(Oc3ccccc3)cc2)C1` (single isomer, unassigned) [Example 611] yielded an IC50 of 631 nM.

same assay, conditions: pIC50 = negative log of the IC50 in molar; 60 minutes incubation, 50 nM Tracer 236

Going from `C=CC(=O)N1CCC[C@@H](NC(=O)c2sc3nccc4c3c2NC(=O)N4c2ccc(OCC)cc2C)C1` [Example 66, (R)—N-(1-Acryloylpiperidin-3-yl)-5-(4-ethoxy-2-methylphenyl)-4-oxo-4,5-dihydro-3H-1-thia-3,5,8-triazaacenaphthylene-2-carboxamide] to `C=CC(=O)N1CC[C@@H](NC(=O)c2sc3nccc4c3c2NC(=O)N4c2ccc(Oc3ccccc3)cc2Cl)C1` [Example 12, (R)—N-(1-Acryloylpyrrolidin-3-yl)-5-(2-chloro-4-phenoxyphenyl)-4-oxo-4,5-dihydro-3H-1-thia-3,5,8-triazaacenaphthylene-2-carboxamide], the “BTK_I_binding pIC50” value rises from 7.4 to 7.7.

`Cc1cc(Oc2ccccc2)ccc1N1C(=O)Nc2c(C(=O)N[C@@H]3CCCN(C(=O)/C(C#N)=C\C(C)(C)N)C3)sc3nccc1c23` [Example 195, (R,Z)—N-(1-(4-Amino-2-cyano-4-methylpent-2-enoyl)piperidin-3-yl)-5-(2-methyl-4-phenoxyphenyl)-4-oxo-4,5-dihydro-3H-1-thia-3,5,8-triazaacenaphthylene-2-carboxamide] and `COCC(=O)N1CCC[C@@H](NC(=O)c2sc3nccc4c3c2NC(=O)N4c2ccc(Oc3ccccc3)c(F)c2C)C1` [Example 115, (R)-5-(3-Fluoro-2-methyl-4-phenoxyphenyl)-N-(1-(2-methoxyacetyl)piperidin-3-yl)-4-oxo-4,5-dihydro-3H-1-thia-3,5,8-triazaacenaphthylene-2-carboxamide] are the same in “BTK_I_binding pIC50” value: 7.4 for the first, 7.4 for the second.

same assay, conditions: unphosphorylated-BTK kinase domain, 50 nM Tracer 236, 60 minutes; pIC50 = negative log of the IC50 in molar

Going from `CO[C@@H]1CNC[C@H](NC(=O)c2sc3nccc4c3c2NC(=O)N4c2ccc(Oc3ccccc3)cc2C)C1` (relative stereo) [Example 468, N-((3R,5S)-5-Methoxypiperidin-3-yl)-5-(*R)-(2-methyl-4-phenoxyphenyl)-4-oxo-4,5-dihydro-3H-1-thia-3,5,8-triazaacenaphthylene-2-carboxamide] to `COC(C)(C)CC(=O)N1CCC[C@@H](NC(=O)c2sc3nccc4c3c2NC(=O)N4c2ccc(Oc3ccccc3)cc2C)C1` [Example 363, (R)—N-(1-(3-Methoxy-3-methylbutanoyl)piperidin-3-yl)-5-(2-methyl-4-phenoxyphenyl)-4-oxo-4,5-dihydro-3H-1-thia-3,5,8-triazaacenaphthylene-2-carboxamide], the “BTK_I_binding pIC50” value rises from 5.9 to 6.9.

Going from `O=C(N[C@@H]1CCCNC1)c1sc2nccc3c2c1NC(=O)N3c1ccc(-c2ccccc2)cc1` [Example 344, (R)-5-([1,1′-Biphenyl]-4-yl)-4-oxo-N-(piperidin-3-yl)-4,5-dihydro-3H-1-thia-3,5,8-triazaacenaphthylene-2-carboxamide] to `Cc1cccc(-c2cccc(N3C(=O)Nc4c(C(=O)N[C@@H]5CCCNC5)sc5nccc3c45)c2)c1` [Example 553, (R)-5-(3′-Methyl-[1,1′-biphenyl]-3-yl)-4-oxo-N-(piperidin-3-yl)-4,5-dihydro-3H-1-thia-3,5,8-triazaacenaphthylene-2-carboxamide], the “BTK_I_binding pIC50” value rises from 5.0 to 6.8.

Compared with `CC(=O)N/C=C\C(=O)N1CCC[C@@H](NC(=O)c2sc3nccc4c3c2NC(=O)N4c2ccc(Oc3ccccc3)cc2C)C1` [Example 364, (R,Z)—N-(1-(3-Acetamidoacryloyl)piperidin-3-yl)-5-(2-methyl-4-phenoxyphenyl)-4-oxo-4,5-dihydro-3H-1-thia-3,5,8-triazaacenaphthylene-2-carboxamide], `Cc1cc(Oc2ccccc2)ccc1N1C(=O)Nc2c(C(=O)N[C@@H]3CCCN(C(=O)/C=C/CS(C)(=O)=O)C3)sc3nccc1c23` [Example 374, (R,E)-5-(2-Methyl-4-phenoxyphenyl)-N-(1-(4-(methylsulfonyl)but-2-enoyl)piperidin-3-yl)-4-oxo-4,5-dihydro-3H-1-thia-3,5,8-triazaacenaphthylene-2-carboxamide] is higher in “BTK_I_binding pIC50” value: 6.8 for the first, 7.0 for the second.

Going from `Cc1cc(Oc2ccccc2)ccc1N1C(=O)Nc2c(C(=O)N[C@@H]3CCCN(C(=O)CCO)C3)sc3nccc1c23` (single isomer, unassigned) [Example 318, (R)—N-(1-(3-Hydroxypropanoyl)piperidin-3-yl)-5-(*R)-(2-methyl-4-phenoxyphenyl)-4-oxo-4,5-dihydro-3H-1-thia-3,5,8-triazaacenaphthylene-2-carboxamide] to `CNCC(=O)N1CCC[C@@H](NC(=O)c2sc3nccc4c3c2NC(=O)N4c2ccc(Oc3ccccc3)cc2)C1` [Example 546, (R)—N-(1-(2-(Methylamino)acetyl)piperidin-3-yl)-4-oxo-5-(4-phenoxyphenyl)-4,5-dihydro-3H-1-thia-3,5,8-triazaacenaphthylene-2-carboxamide], the “BTK_I_binding pIC50” value rises from 5.8 to 7.4.

`Cc1cc(OC2CCC2)ccc1N1C(=O)Nc2c(C(=O)N[C@@H]3CCCN(C)C3)sc3nccc1c23` [Example 284, (R)-5-(4-Cyclobutoxy-2-methylphenyl)-N-(1-methylpiperidin-3-yl)-4-oxo-4,5-dihydro-3H-1-thia-3,5,8-triazaacenaphthylene-2-carboxamide] and `C=CC(=O)N1CCC[C@@H](NC(=O)c2sc3nccc4c3c2NC(=O)N4c2cccc(Cl)c2)C1` [Example 294, (R)—N-(1-Acryloylpiperidin-3-yl)-5-(3-chlorophenyl)-4-oxo-4,5-dihydro-3H-1-thia-3,5,8-triazaacenaphthylene-2-carboxamide] are within 0.2 log units of each other in “BTK_I_binding pIC50” value: 6.2 for the first, 6.1 for the second.

For `C=CC(=O)N1CCC[C@@H](NC(=O)c2sc3nccc4c3c2NC(=O)N4c2cccc(-c3cccc(Cl)c3)c2)C1` [Example 507, (R)—N-(1-Acryloylpiperidin-3-yl)-5-(3′-chloro-[1,1′-biphenyl]-3-yl)-4-oxo-4,5-dihydro-3H-1-thia-3,5,8-triazaacenaphthylene-2-carboxamide], the “BTK_I_binding pIC50” value was 7.8.

For `O=C(N[C@@H]1CCCNC1)c1sc2nccc3c2c1NC(=O)N3c1ccc(Cl)c(Cl)c1` [Example 346, (R)-5-(3,4-Dichlorophenyl)-4-oxo-N-(piperidin-3-yl)-4,5-dihydro-3H-1-thia-3,5,8-triazaacenaphthylene-2-carboxamide], the “BTK_I_binding pIC50” value was less than 5.
For `O=C(N[C@@H]1CCCNC1)c1sc2nccc3c2c1NC(=O)N3c1cc2ccccc2s1` [Example 428, (R)-5-(Benzo[b]thiophen-2-yl)-4-oxo-N-(piperidin-3-yl)-4,5-dihydro-3H-1-thia-3,5,8-triazaacenaphthylene-2-carboxamide], the “BTK_I_binding pIC50” value was less than 5.

same assay, conditions: unphosphorylated-BTK kinase domain, 60 minutes incubation, 50 nM Tracer 236; pIC50 = negative log of the IC50 in molar

Compared with `CCC(=O)N1CCC(NC(=O)c2sc3nccc4c3c2NC(=O)N4c2ccc(Oc3ccccc3)cc2C)CC1` [Example 947, 5-(2-Methyl-4-phenoxyphenyl)-4-oxo-N-(1-propionylpiperidin-4-yl)-4,5-dihydro-3H-1-thia-3,5,8-triazaacenaphthylene-2-carboxamide], `CN1CC[C@H](NC(=O)c2sc3nccc4c3c2NC(=O)N4c2ccc(Oc3ccccc3)cc2)C1` [Example 931, (S)—N-(1-Methylpyrrolidin-3-yl)-4-oxo-5-(4-phenoxyphenyl)-4,5-dihydro-3H-1-thia-3,5,8-triazaacenaphthylene-2-carboxamide] is higher in “BTK_I_binding pIC50” value: 5.4 for the first, 6.1 for the second.
